System: Rice Blast
Design: species or system Magnaporthe oryzae
Details: in vivo

Structure (SMILES): COc1ccnc(C(=O)N[C@H]2COC(=O)[C@H](Cc3ccccc3)[C@@H](OC(=O)C(C)C)[C@H](C)OC2=O)c1OCOC(=O)C(C)C [Compound I]
- Flag Leaf (% INFECT): B (key: A: 1-25; B: 26-50; C: 51-75; D: 76-100; E: Not tested)
- Panicles (% INCID): B (key: A: 1-25; B: 26-50; C: 51-75; D: 76-100; E: Not tested)
- Panicles (% INFECT): B (key: A: 1-25; B: 26-50; C: 51-75; D: 76-100; E: Not tested)

From patent US20180055050A1 (priority 2016, published 2018)
